In PMC9804871, “Effect of Opicapone on Levodopa Pharmacokinetics in Patients with Fluctuating Parkinson's Disease” (Movement Disorders, 2022):

Tests used:
[1] = 12-hour 3-O-methyldopa plasma pharmacokinetics; assay type: in vivo, human (patients with PD); conditions: for 3-O-methyldopa Cmax,max, Geometric Mean (90% CI): N 12; for 3-O-methyldopa tmax: median; for 3-O-methyldopa Cmax,max: mean (%CV)
Experimental: Following screening, all patients received a daily LD/CD dose of 500/125 mg for 2 weeks, administered as LD/CD 100/25 mg five times a day (five‐intake LD/CD 500/125 mg), fixed every 3 hours (from 8 AM to 8 PM) at pharmacokinetic day. Patients were then randomly assigned (1:1) to receive two different regimens of opicapone 50 mg plus LD/CD (400/100 mg daily) for an additional 2 weeks. • Patients on opicapone regimen 1 received LD/CD 100/25 mg four times a day plus opicapone 50 mg at least 1 hour after the last administration of LD/CD each day (four‐intake LD/CD 400/100 mg plus opicapone 50 mg), fixed every 4 hours (from 8 AM to 8 PM) at pharmacokinetic day. • Patients on opicapone regimen 2 received alternating LD/CD 100/25 mg and 50/12.5 mg doses (ie, 100/25 mg, 50/12.5 mg, 100/25 mg, 50/12.5 mg, and 100/25 mg) five times a day plus opicapone 50 mg at least 1 hour after the last administration of LD/CD each day (five‐intake LD/CD 400/100 mg plus opicapone 50 mg), fixed every 3 hours (from 8 AM to 8 PM) at pharmacokinetic day.
The primary objective of the study was to evaluate the pharmacokinetics of LD in the two opicapone LD/CD 400/100 mg dosing regimens (four and five intakes) when compared with the five‐intake LD/CD 500/125 mg regimen without opicapone. The pharmacokinetics study endpoint was set after 2 weeks of each treatment regimen (ie, at the end of the initial five‐intake LD/CD 500/125 mg treatment regimen and at the end of the LD/CD 400/100 mg plus opicapone treatment). Pharmacokinetic evaluation occurred over 12 hours with sampling every 30 minutes, except for the last sample following each LD dose in the opicapone plus four LD intake regimen, which was sampled at 1 hour. The main pharmacokinetics parameters assessed included maximum observed plasma concentration (Cmax), time to achieve peak plasma levels (tmax), minimum observed plasma concentration (Cmin), plasma elimination half‐life (t1/2), area under the curve (AUC), and fluctuation index (FI; as an expression of peak‐to‐trough fluctuation, Cmax, and Cmin, relative to average concentration [Cavg]). The pharmacokinetics of the LD metabolite 3‐O‐methyldopa (3‐OMD) was also evaluated.
Descriptive statistics were used to summarize the pharmacokinetics parameters for LD and 3‐OMD for each of the three regimens. […] No formal comparison was performed between opicapone regimens. Pharmacokinetic parameters were evaluated within the same population for each LD/CD 400/100 mg plus opicapone treatment regimen compared with the LD/CD 500/125 mg without opicapone regimen. Geometric mean ratios and corresponding 90% confidence intervals (CIs) for the LD and 3‐OMD log‐transformed pharmacokinetics parameters (AUCtotal, Cmax,max and Cmin,min [only for LD]) were calculated using a paired t test for the comparison between the five‐intake LD/CD 500/125 mg treatment without opicapone and each of the two LD/CD 400/100 mg plus opicapone regimens; only data from completers (patients with data for both regimens) were used for this analysis.

[2] = system: patients with PD and end-of-dose motor fluctuations; test: 12-hour patient on/off monitoring on pharmacokinetics days; assay type: in vivo, human (patients with PD); conditions: for OFF-time / ON-time / ON-time With Dyskinesia / ON-time Without Dyskinesia / Time to Best-ON / Time to ON: mean; for 12-hour OFF-time / 12-hour ON-time / 12-hour ON-time With Dyskinesia / 12-hour ON-time Without Dyskinesia / 12-hour Time to Best-ON / 12-hour Time to ON: mean (SD)
Experimental: Clinical and safety/tolerability outcomes were also assessed as exploratory secondary outcomes. Clinical outcomes included on and off time assessed using patient‐rated tools. The timing of on and off states was registered (in real time) by the investigators during the matching 12‐hour pharmacokinetic evaluation (as such applied on pharmacokinetics days only), and patients also completed 24‐hour patient Hauser on/off diary charts[21] (in 30‐minute blocks) during the 3 days before each pharmacokinetic visit. Diary states of interest were off time and on time, including on without dyskinesia, on with nontroublesome dyskinesia, and on with troublesome dyskinesia. In addition, the Patient Global Impression of Change (PGI‐C) of opicapone 50 mg was evaluated at the end of the LD/CD 400/100 mg plus opicapone treatment compared with before the start of opicapone treatment.[22] Safety and tolerability endpoints included treatment‐emergent adverse events (TEAEs), serious TEAEs, and TEAEs leading to discontinuation.
Clinical outcomes are also presented descriptively. A paired t test was used for the comparison of 12‐hour off and on time, 24‐hour off and on time, time to on, and time to best on between each opicapone‐containing regimen and the regimen without opicapone. Estimates of mean difference and corresponding 90% CIs were reported for all main variables.

[3] = 5-intake LD/CD 500/125mg vs 4-intake LD/CD 400/100mg plus OPC 50mg, 1st LD/CD intake, mean
[4] = 5-intake LD/CD 500/125mg vs 4-intake LD/CD 400/100mg plus OPC 50mg, 1st LD/CD intake
[5] = 5-intake LD/CD 500/125mg vs 4-intake LD/CD 400/100mg plus OPC 50mg, 2nd LD/CD intake, mean
[6] = 5-intake LD/CD 500/125mg vs 4-intake LD/CD 400/100mg plus OPC 50mg, 2nd LD/CD intake
[7] = 5-intake LD/CD 500/125mg vs 4-intake LD/CD 400/100mg plus OPC 50mg, 3rd LD/CD intake, mean
[8] = 5-intake LD/CD 500/125mg vs 4-intake LD/CD 400/100mg plus OPC 50mg, 3rd LD/CD intake
[9] = 5-intake LD/CD 500/125mg vs 4-intake LD/CD 400/100mg plus OPC 50mg, 4th LD/CD intake, mean
[10] = 5-intake LD/CD 500/125mg vs 4-intake LD/CD 400/100mg plus OPC 50mg, 4th LD/CD intake
[11] = 5-intake LD/CD 500/125mg vs 4-intake LD/CD 400/100mg plus OPC 50mg
[12] = 5-intake LD/CD 500/125mg vs 5-intake LD/CD 400/100mg plus OPC 50mg, 1st LD/CD intake, mean
[13] = 5-intake LD/CD 500/125mg vs 5-intake LD/CD 400/100mg plus OPC 50mg, 1st LD/CD intake
[14] = 5-intake LD/CD 500/125mg vs 5-intake LD/CD 400/100mg plus OPC 50mg, 2nd LD/CD intake, mean
[15] = 5-intake LD/CD 500/125mg vs 5-intake LD/CD 400/100mg plus OPC 50mg, 2nd LD/CD intake
[16] = 5-intake LD/CD 500/125mg vs 5-intake LD/CD 400/100mg plus OPC 50mg, 3rd LD/CD intake, mean
[17] = 5-intake LD/CD 500/125mg vs 5-intake LD/CD 400/100mg plus OPC 50mg, 3rd LD/CD intake
[18] = 5-intake LD/CD 500/125mg vs 5-intake LD/CD 400/100mg plus OPC 50mg, 4th LD/CD intake, mean
[19] = 5-intake LD/CD 500/125mg vs 5-intake LD/CD 400/100mg plus OPC 50mg, 4th LD/CD intake
[20] = 5-intake LD/CD 500/125mg vs 5-intake LD/CD 400/100mg plus OPC 50mg
[21] = five-intake levodopa/carbidopa 500/125 mg vs five-intake levodopa/carbidopa 400/100 mg plus opicapone 50 mg, N 9
[22] = five-intake levodopa/carbidopa 500/125 mg vs four-intake levodopa/carbidopa 400/100 mg plus opicapone 50 mg, N 10
[23] = five-intake levodopa/carbidopa 500/125 mg vs four-intake levodopa/carbidopa 400/100 mg plus opicapone 50 mg, N 12

levodopa/carbidopa [LD/CD]
3-O-methyldopa Cmax,max, Geometric Mean (90% CI) ([1]; 5-intake LD/CD 500/125mg vs 4-intake LD/CD 400/100mg +OPC 50mg): 4264 (3631, 5006) ng/mL
3-O-methyldopa AUCτ [1, 3]: 10068^a h*ng/mL
3-O-methyldopa Cmax [1, 3]: 3453 ng/mL
3-O-methyldopa Cmin [1, 3]: 3021 ng/mL
3-O-methyldopa tmax [1, 4]: 1.75 h
3-O-methyldopa Cmax [1, 5]: 3619 ng/mL
3-O-methyldopa Cmin [1, 5]: 3077 ng/mL
3-O-methyldopa tmax [1, 6]: 2.5 h
3-O-methyldopa AUCτ [1, 7]: 14278^b h*ng/mL
3-O-methyldopa Cmax [1, 7]: 4011 ng/mL
3-O-methyldopa Cmin [1, 7]: 3437 ng/mL
3-O-methyldopa tmax [1, 8]: 2.71 h
3-O-methyldopa AUCτ ([1]; 5-intake LD/CD 500/125mg vs 4-intake LD/CD 400/100mg plus OPC 50mg, 4th LD/CD intake, 1 patient): 13519^c h*ng/mL
3-O-methyldopa Cmax [1, 9]: 4435 ng/mL
3-O-methyldopa Cmin [1, 9]: 3766 ng/mL
3-O-methyldopa tmax [1, 10]: 2.5 h
3-O-methyldopa Cmax,max [1, 11]: 4447 (29.2) ng/mL
3-O-methyldopa Cmax,max, Geometric Mean (90% CI) ([1]; 5-intake LD/CD 500/125mg vs 5-intake LD/CD 400/100mg +OPC 50mg): 4201 (3733, 4727) ng/mL
3-O-methyldopa AUCτ [1, 12]: 8991^g h*ng/mL
3-O-methyldopa Cmax [1, 12]: 3191 ng/mL
3-O-methyldopa Cmin [1, 12]: 2868 ng/mL
3-O-methyldopa tmax [1, 13]: 1.5 h
3-O-methyldopa AUCτ [1, 14]: 9002^d h*ng/mL
3-O-methyldopa Cmax [1, 14]: 3406 ng/mL
3-O-methyldopa Cmin [1, 14]: 2907 ng/mL
3-O-methyldopa tmax [1, 15]: 2.5 h
3-O-methyldopa AUCτ ([1]; 5-intake LD/CD 500/125mg vs 5-intake LD/CD 400/100mg plus OPC 50mg, 3rd LD/CD intake, 1 patient): 11951^c h*ng/mL
3-O-methyldopa Cmax [1, 16]: 3875 ng/mL
3-O-methyldopa Cmin [1, 16]: 3151 ng/mL
3-O-methyldopa tmax [1, 17]: 2.5 h
3-O-methyldopa Cmax [1, 18]: 4170 ng/mL
3-O-methyldopa Cmin [1, 18]: 3586 ng/mL
3-O-methyldopa tmax [1, 19]: 2.71 h
3-O-methyldopa Cmax,max [1, 20]: 4300 (22.4) ng/mL
OFF-time [2, 4]: 79.8 min
ON-time [2, 4]: 100.3 min
ON-time With Dyskinesia [2, 4]: 45.0 min
ON-time Without Dyskinesia [2, 4]: 92.8 min
Time to Best-ON [2, 4]: 55.0 min
Time to ON [2, 4]: 38.9 min
OFF-time [2, 6]: 106.9 min
ON-time [2, 6]: 73.1 min
ON-time With Dyskinesia [2, 6]: 23.3 min
ON-time Without Dyskinesia [2, 6]: 67.3 min
Time to Best-ON [2, 6]: 58.8 min
Time to ON [2, 6]: 50.0 min
OFF-time [2, 8]: 89.5 min
ON-time [2, 8]: 90.5 min
ON-time With Dyskinesia [2, 8]: 23.8 min
ON-time Without Dyskinesia [2, 8]: 81.8 min
Time to Best-ON [2, 8]: 62.0 min
Time to ON [2, 8]: 40.5 min
OFF-time [2, 10]: 84.6 min
ON-time [2, 10]: 91.3 min
ON-time With Dyskinesia [2, 10]: 22.5 min
ON-time Without Dyskinesia [2, 10]: 87.5 min
Time to Best-ON [2, 10]: 57.9 min
Time to ON [2, 10]: 42.1 min
12-hour OFF-time [2, 11]: 353.3 (80.46) min
12-hour ON-time [2, 11]: 347.5 (92.53) min
12-hour ON-time With Dyskinesia [2, 11]: 60.0 (45.14) min
12-hour ON-time Without Dyskinesia [2, 11]: 322.5 (106.27) min
12-hour Time to Best-ON [2, 11]: 59.22 (14.92) min
12-hour Time to ON [2, 11]: 46.14 (12.38) min
OFF-time [2, 13]: 88.5 min
ON-time [2, 13]: 91.5 min
ON-time With Dyskinesia [2, 13]: 33.8 min
ON-time Without Dyskinesia [2, 13]: 79.2 min
Time to Best-ON [2, 13]: 62.7 min
Time to ON [2, 13]: 41.5 min
OFF-time [2, 15]: 103.0 min
ON-time [2, 15]: 77.0 min
ON-time With Dyskinesia [2, 15]: 27.5 min
ON-time Without Dyskinesia [2, 15]: 71.5 min
Time to Best-ON [2, 15]: 51.7 min
Time to ON [2, 15]: 36.0 min
OFF-time [2, 17]: 86.5 min
ON-time [2, 17]: 93.5 min
ON-time With Dyskinesia [2, 17]: 31.7 min
ON-time Without Dyskinesia [2, 17]: 74.5 min
Time to Best-ON [2, 17]: 50.0 min
Time to ON [2, 17]: 44.5 min
OFF-time [2, 19]: 96.0 min
ON-time [2, 19]: 81.0 min
ON-time With Dyskinesia [2, 19]: 27.5 min
ON-time Without Dyskinesia [2, 19]: 75.5 min
Time to Best-ON [2, 19]: 57.5 min
Time to ON [2, 19]: 52.5 min
12-hour OFF-time [2, 20]: 348.1 (103.9) min
12-hour ON-time [2, 20]: 320.1 (83.80) min
12-hour ON-time With Dyskinesia [2, 20]: 72.5 (24.24) min
12-hour ON-time Without Dyskinesia [2, 20]: 280.5 (71.44) min
12-hour Time to Best-ON [2, 20]: 55.46 (14.86) min
12-hour Time to ON [2, 20]: 43.13 (11.32) min
12-h off time, geometric mean (90% CI) [2, 21]: 376.9 (349.9, 406.0) min
12-h on time, geometric mean (90% CI) [2, 21]: 333.1 (298.8, 371.2) min
12-h time to on, geometric mean (90% CI) ([2]; five-intake levodopa/carbidopa 500/125 mg vs five-intake levodopa/carbidopa 400/100 mg plus opicapone 50 mg, N 10): 41.84 (36.03, 48.59) min
12-h time to best on, geometric mean (90% CI) ([2]; five-intake levodopa/carbidopa 500/125 mg vs five-intake levodopa/carbidopa 400/100 mg plus opicapone 50 mg, N 12): 53.97 (47.84, 60.89) min
12-h off time, geometric mean (90% CI) [2, 22]: 356.4 (313.2, 405.5) min
12-h on time, geometric mean (90% CI) [2, 22]: 340.3 (292.0, 396.7) min
12-h time to best on, geometric mean (90% CI) [2, 23]: 57.62 (50.84, 65.31) min
12-h time to on, geometric mean (90% CI) [2, 23]: 44.62 (38.75, 51.39) min
